Laboratory results: US20040259176A1, “Structural basis for the guanine nucleotide-binding activity of tissue transglutaminase and its regulation of transamidation activity” (priority 2003, published 2004)

Experiments:
Type in all cases: cell-based, human
SKBR3 cells [1] = experiment: Western blot for cleaved (activated) caspase 3; conditions: 24 hours of incubation with doxorubicin, FIG. 11A
Procedure: (§1) FIGS. 1A-D illustrate that the protective effect of EGF from doxorubicin-induced apoptosis is blocked by MDC in SKBR3 cells. In FIG. 11A, nearly confluent cultures of SKBR3 and MDAMB231 cells were placed in low serum medium. The following day, the cells were exposed to low serum medium +/−0.25 μM doxorubicin (Dox) for the times indicated and subsequently lysed. The presence of the activated form of caspase 3 (cleaved caspase 3) and actin (actin) in the cell extracts was assessed by Western blot analysis. In FIG. 11B, SKBR3 and MDAMB231 cells were maintained in low serum medium (0) or treated with 10 μM MDC (MDC) for 1.5 days. During this incubation, the SKBR3 cell cultures were also stimulated with +/−100 ng/ml EGF or +/−5 μM RA. All cell cultures were then treated with +/−0.25 μM doxorubicin (Dox) for about 1 day and the cells were scored for programmed cell death as described in Example 13. The assay was performed three times and the average percentage of cell death was plotted (FIG. 11C).
(§2) NIH3T3 cells were grown in Dulbecco's modified Eagle's medium containing 10% calf serum and 100 units/ml penicillin. SKBR3 and MDAMB231 cells were grown in RPMI 1640 medium containing 10% fetal bovine serum and 100 units/ml penicillin. The cell lines were maintained in a humidified atmosphere with 5% CO2 at 37° C. […] Protein concentrations were determined using the Bio-Rad DC protein assay. […]

MDAMB231 cells [2] = experiment: Western blot for cleaved (activated) caspase 3; conditions: MDAMB231 cells exposed to doxorubicin; FIG. 11A
Procedure: as §1, §2

SKBR3 cells [3] = experiment: Nuclear condensation or blebbing assay (doxorubicin-induced apoptosis)
Procedure: as §1
(§3) NIH3T3 cells were grown in Dulbecco's modified Eagle's medium containing 10% calf serum and 100 units/ml penicillin. SKBR3 and MDAMB231 cells were grown in RPMI 1640 medium containing 10% fetal bovine serum and 100 units/ml penicillin. The cell lines were maintained in a humidified atmosphere with 5% CO2 at 37° C. For the various treatments described, the cells were grown to near confluence in medium containing 10% serum, and then medium containing 1% serum or no serum with 5 μM RA, and/or 100 ng/ml EGF, +/−7 μM LY294002, and +/−0.2 μM doxorubicin were added for the appropriate amount of time. Cells were rinsed with phosphate-buffered saline (PBS) and then lysed with cell lysis buffer (10 mM Na2HPO4, 150 mM NaCl, 1% Triton X-100, 0.5% sodium deoxycholate, 0.1% SDS, 0.004% NaF, 1 mM NaVO4, 25 mM β-glycerophosphoric acid, 100 μg/ml phenylmethanesulfonyl fluoride, and 1 μg/ml each aprotinin and leupeptin, pH 7.35). The lysates were clarified by centrifugation at 12,000×g for 10 minutes at 4° C. Protein concentrations were determined using the Bio-Rad DC protein assay.
(§4) Cells were seeded in 6-well dishes and grown in complete medium for 2 days. The cells were then incubated in medium containing 1% serum +/−5 μM RA, +/−100 ng/ml EGF, and +/−10 μM MDC for 2 days. The cultures were then incubated with fresh medium containing RA, EGF, and MDC and +/−0.2 μM doxorubicin for an additional 1.5 days and were fixed and stained with 4,6-diamidino-2-phenylindole (2 μg/ml) for viewing by fluorescence microscopy. Apoptotic cells were identified by condensed nuclei and/or blebbing.

MDAMB231 cells [4] = experiment: as above; conditions: FIG. 11C
Procedure: as §1, §3, §4

Compound	cleaved or activated caspase 3 (SKBR3 cells [1])	cleaved form of caspase 3 (MDAMB231 cells [2])	cells displaying nuclear condensation or blebbing (SKBR3 cells [3]; SKBR3 cells exposed to doxorubicin (0.25 μM, about 1 day), low serum, FIG. 11B) [%]	apoptotic rate (MDAMB231 cells [4]; MDAMB231 cells exposed to doxorubicin (0.25 μM)) [%]	effect on the pro-survival effect of EGF from doxorubicin-induced apoptosis (SKBR3 cells [3]; SKBR3 cells incubated with MDC (10 μM), EGF and doxorubicin)	susceptibility to doxorubicin-induced apoptosis compared to doxorubicin treatment alone (MDAMB231 cells [4]; MDAMB231 cells, 10 μM MDC plus doxorubicin)
COc1cccc2c1C(=O)c1c(O)c3c(c(O)c1C2=O)C[C@@](O)(C(=O)CO)C[C@@H]3O[C@H]1C[C@H](N)[C@H](O)[C@H](C)O1 [doxorubicin]	easily detected	failed to induce the cleaved form of caspase 3 to the same extent as in SKBR3 cells	~80	25		
CN(C)c1cccc2c(S(=O)(=O)NCCCCCN)cccc12 [MDC, monodansylcadaverine]					nearly completely eliminated the pro-survival effect of EGF	slightly more than twice as susceptible
